This note sets out measurements from patent US7704971B2, “Uracil reductase inactivators” (SmithKlineBeecham Corporation, priority 1990, dated 2010).

The test deals with T1, Uracil reductase (dihydropyrimidine dehydrogenase, EC 1.3.1.2) (Bos taurus, UniProt Q28007).
T1 construct: purified from bovine liver; from tissue; host or cells: bovine liver
T1 sequence (Q28007 1-1025): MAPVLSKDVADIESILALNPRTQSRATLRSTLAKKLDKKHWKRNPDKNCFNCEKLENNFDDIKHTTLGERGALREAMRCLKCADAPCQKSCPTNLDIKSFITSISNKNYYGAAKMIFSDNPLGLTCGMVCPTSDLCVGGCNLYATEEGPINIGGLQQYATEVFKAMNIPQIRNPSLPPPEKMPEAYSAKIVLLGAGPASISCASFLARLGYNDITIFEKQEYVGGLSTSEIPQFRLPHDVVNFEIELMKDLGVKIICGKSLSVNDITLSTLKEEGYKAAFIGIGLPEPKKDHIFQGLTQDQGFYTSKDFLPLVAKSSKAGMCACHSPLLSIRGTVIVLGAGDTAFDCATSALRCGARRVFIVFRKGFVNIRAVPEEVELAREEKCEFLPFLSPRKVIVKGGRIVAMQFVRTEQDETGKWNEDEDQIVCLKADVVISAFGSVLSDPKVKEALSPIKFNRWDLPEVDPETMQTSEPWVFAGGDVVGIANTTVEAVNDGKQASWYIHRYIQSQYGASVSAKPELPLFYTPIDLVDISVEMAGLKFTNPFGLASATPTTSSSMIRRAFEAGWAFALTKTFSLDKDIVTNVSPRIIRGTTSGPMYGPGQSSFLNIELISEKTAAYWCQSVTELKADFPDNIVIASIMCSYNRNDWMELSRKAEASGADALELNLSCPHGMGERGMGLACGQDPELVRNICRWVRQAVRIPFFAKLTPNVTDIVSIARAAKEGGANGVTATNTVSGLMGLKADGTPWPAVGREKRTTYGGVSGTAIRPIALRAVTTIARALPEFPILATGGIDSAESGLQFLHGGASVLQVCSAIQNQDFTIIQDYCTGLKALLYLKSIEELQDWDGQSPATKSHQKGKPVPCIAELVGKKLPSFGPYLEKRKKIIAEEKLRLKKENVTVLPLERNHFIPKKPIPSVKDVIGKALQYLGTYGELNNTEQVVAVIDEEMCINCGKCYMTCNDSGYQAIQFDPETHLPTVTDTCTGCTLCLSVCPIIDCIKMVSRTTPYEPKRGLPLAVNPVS
Kind of test: Determination of uracil reductase inactivation. The class given is biochemical, bovine. How it is done:
Uracil reductase (1 micromolar) (dihydropyrimidine dehydrogenase, EC 1.3.1.2) purified from bovine liver was incubated with 100 micromolar inactivator and 5 mM dithiothreitol (enzyme reductant) at 37° for 30 minutes in 0.05 M Tris-HCl at pH 8.0. The enzyme and inactivator were diluted 100-fold into the assay buffer, which contained 200 micromolar NADPH, 200 micromolar thymine and 1 mM dithiothreitol in Tris-HCl at pH 8.0. The velocity of the enzyme was determined spectrophotometrically. These velocities have been corrected for NADPH oxidase activity, which was less than […] of the rate of thymine-dependent oxidation of NADPH. The % inactivation of the enzyme was equal to 100% minus the percent of enzymatic activity remaining. Enzyme incubated without inhibitor was stable under these conditions. Parenthetical values are the relative first-order rate constants for inactivation of enzyme determined from similar experiments where the fractional activity was measured as a function of the time of incubation of 50 micromol inactivator with enzyme.

With `C#Cc1c[nH]c(=O)[nH]c1=O` [5-ethynyluracil], where the note is “50 micromol inactivator, fractional activity vs time of incubation”, the “relative first-order rate constants for inactivation of enzyme (parenthetical values)” value is “(100)”. Also, for the setting “0.5 h, 100 micromolar inactivator, 1 micromolar enzyme, 5 mM dithiothreitol, 37° for 30 minutes, pH 8.0, read-out: % Inactivation”, the inhibition at 100 µM came out at 100%.
